Measurements reported in ChEMBL document CHEMBL5608113, “Targeting of CAF-induced therapy resistance in CRC organoid-stroma co-cultures” (2024).

Experiments:
Format in all cases: functional, Homo sapiens
Details in all cases: Homo sapiens, read-out: Cell Viability; for viability at 10 µM: Concentration 10 uM; for viability at 1 µM: Concentration 1 uM
Colon cancer organoid [1] = experiment: Targeting of F14 CAF-induced therapy resistance in O23 CRC organoid-stroma co-culture. Cell viability is reported with SN-38.
Colon cancer organoid [2] = experiment: Targeting of F14 CAF-induced therapy resistance in O23 CRC organoid-stroma co-culture. Cell viability is reported without Gefitinib.
Colon cancer organoid [3] = experiment: Targeting of F14 CAF-induced therapy resistance in O23 CRC organoid-stroma co-culture. Cell viability is reported with Gefitinib.
Colon cancer organoid [4] = experiment: Targeting of F14 CAF-induced therapy resistance in O14 CRC organoid-stroma co-culture. Cell viability is reported with Gefitinib.
Colon cancer organoid [5] = experiment: Targeting of F14 CAF-induced therapy resistance in O14 CRC organoid-stroma co-culture. Cell viability is reported without Gefitinib.

| SMILES | viability at 10 µM (Colon cancer organoid [1]) | viability at 10 µM (Colon cancer organoid [2]) | viability at 10 µM (Colon cancer organoid [3]) | viability at 10 µM (Colon cancer organoid [4]) | viability at 10 µM (Colon cancer organoid [5]) | viability at 1 µM (Colon cancer organoid [1]) | viability at 1 µM (Colon cancer organoid [2]) | viability at 1 µM (Colon cancer organoid [3]) | viability at 1 µM (Colon cancer organoid [4]) | viability at 1 µM (Colon cancer organoid [5]) |
| --- | --- | --- | --- | --- | --- | --- | --- | --- | --- | --- |
| C=CC(=O)Nc1ccc2[nH]c(=O)n(C3CCN(Cc4ccc(-c5ccc6c(c5)NC(=O)CO6)cc4)CC3)c2c1 [RL2578] | 65.6% | 106% | 55.4% | 33.2% | 101% | – | – | – | – | – |
| Cn1cnc2c(F)c(Nc3ccc(Br)cc3Cl)c(C(=O)NOCCO)cc21 [SELUMETINIB] | 48.4% | 62.9% | 27.6% | 22.1% | 51.6% | – | – | – | – | – |
| CS(=O)(=O)N1CCCC(NC(=O)[C@H](CCC2CCCCC2)NC(=O)c2ccc(CNC(=O)c3cnc4ccccn34)cc2)C1 (stereo not given in full) [SR-302] | – | – | – | – | – | 54.1% | 126% | 69.8% | 37.1% | 101% |
| Nc1c(C(=O)NCc2ccc(C(=O)NCCCC3CCCCC3)cc2)cnn1-c1ccccc1 [SR-318] | – | – | – | – | – | 77.6% | 166% | 58.8% | 41.3% | 85% |
| O=C(NCCCC1CCCCC1)c1ccc(CNC(=O)c2cnn(-c3ccccc3)c2C(F)(F)F)cc1 [SR-321] | – | – | – | – | – | 78% | 138% | 48.4% | 23.5% | 92% |
| O=C1c2ccc(Nc3ccc(F)cc3F)cc2CCc2ccc(OC[C@H](O)CO)cc21 [Skepinone-L] | 77.4% | 143% | 72.8% | 56.2% | 153% | – | – | – | – | – |
| CN1CCN(C(=O)C(C)(C)c2ccc(C(=O)Nc3cn4cc(-c5cc(C(C)(C)C)cc(C(C)(C)C)c5)ccc4n3)cc2)CC1 [T3-CLK-N] | 63.2% | 81.4% | 28.2% | 53.2% | 112% | – | – | – | – | – |
| CN1CCN(C(=O)C(C)(C)c2ccc(C(=O)Nc3cn4cc(-c5ccncc5)ccc4n3)cc2)CC1 [T3-CLK] | 18.9% | 27.9% | 12.1% | 7.96% | 38.4% | – | – | – | – | – |
| COc1cccc(CNC(=O)c2nc3scc(COCc4ccc(C(=O)O)cc4)c3c(=O)[nH]2)c1 [T-26c] | – | – | – | – | – | 62.7% | 98.3% | 68.3% | 60% | 173% |
| COc1cccc(CNC(=O)c2nc3scc(CN(C)Cc4ccccc4)c3c(=O)[nH]2)c1 [T-26f] | 67.3% | 98.9% | 45.7% | 63.8% | 112% | – | – | – | – | – |
| COc1cccc2c1c(O)c(C(=O)N(C)c1ccc(C(F)(F)F)cc1)c(=O)n2C [TASQUINIMOD] | 83% | 99.2% | 47.3% | 61.6% | 80.1% | – | – | – | – | – |
| CC(C)CC(=O)N1CCc2nc(-c3ccc(Br)cc3)nc(N(C)Cc3ccccc3)c2C1 [THPP-1-NC] | – | – | – | – | – | 70.5% | 127% | 47.3% | 39.6% | 95.7% |
| COCCOc1nc(-c2ccc(Cl)nc2)nc2c1CN(C(=O)c1ncn3ccccc13)CC2 [THPP-1] | – | – | – | – | – | 58.4% | 141% | 47.7% | 37.5% | 100% |
| Cc1cnc(-c2cc(Cl)ccc2F)cc1-n1c(=O)n(CC(N)=O)c2cnccc21 [TP-008] | 94% | 147% | 43.8% | 43.1% | 114% | – | – | – | – | – |
| Cn1nc(C(F)(F)F)cc1-c1cnc(N2CCc3cc(S(=O)(=O)Nc4c(F)cc(Cl)cc4F)cc(N4CCCC4=O)c32)nc1 [TP-020] | 92.4% | 133% | 65.7% | 61.7% | 95% | – | – | – | – | – |
| Nc1cnc(N2CCc3cc(S(=O)(=O)Nc4c(F)cc(Cl)cc4F)cc(N4CCCC4=O)c32)nc1 [TP-020n] | – | – | – | – | – | 64.8% | 115% | 45.8% | 71.3% | 104% |
| N#Cc1ccc(Nc2ccc3[nH]c(=O)[nH]c3c2)c(Cl)c1 [TP-021n] | – | – | – | – | – | 63.2% | 161% | 47.2% | 59.2% | 115% |
| Cc1cc(-n2nc(Cc3cc(F)cc(C(F)(F)F)c3)nc2C)ccc1C(N)=O [TP-024] | 81% | 153% | 79% | 49.8% | 110% | – | – | – | – | – |
| Cc1nc(Cc2cccc(C(F)(F)F)c2)sc1-c1ccc(C(N)=O)nc1 [TP-024n] | – | – | – | – | – | 93.5% | 178% | 43.7% | 81.1% | 123% |
| CN1C(=O)[C@@H](N2CCc3cn(Cc4ccccc4)nc3C2=O)COc2ccccc21 [TP-030-1] | – | – | – | – | – | 66.7% | 138% | 56% | 40.8% | 125% |
| CN1C(=O)[C@@H](N2CCc3c(nn(Cc4ccccc4)c3Br)C2=O)COc2ccccc21 [TP-030-2] | – | – | – | – | – | 63.7% | 165% | 83.4% | 31.6% | 113% |
| CC1CCN(c2ccnc(NCc3cn(C)cn3)n2)CC1 [TP-040] | 62.9% | 107% | 81.4% | 55% | 128% | – | – | – | – | – |
| CN1CCN(c2ccnc(NCCc3ccccc3)n2)CC1 [TP-040n] | 89.4% | 177% | 100% | 66.3% | 192% | – | – | – | – | – |
| CC(=O)Nc1cccc(-n2c(=O)n(C3CC3)c(=O)c3c(Nc4ccc(I)cc4F)n(C)c(=O)c(C)c32)c1 [TRAMETINIB] | 1.6% | 1.69% | 1.61% | 0.402% | 1.6% | – | – | – | – | – |
| Cc1ccc2[nH]c(CNCCCc3ccncc3)cc(=O)c2c1 [UCSF924NC] | 52.3% | 95.8% | 37.3% | 33.3% | 127% | – | – | – | – | – |
| Cc1ccc2nc(CNCCCOc3ccccc3)cc(O)c2c1 [UCSF924] | 63.9% | 119% | 48.9% | 36.6% | 105% | – | – | – | – | – |
| CNC(=O)c1ccccc1Nc1cc(Nc2ccc(N3CCOCC3)cc2OC)ncc1C(F)(F)F [VS-4718] | 19.3% | 22.4% | 4.5% | 5.44% | 25.2% | – | – | – | – | – |
| O=C(NNS(=O)(=O)c1ccccc1F)c1cc(F)cc(-c2ccccn2)c1 [WM-1119] | 57.2% | 121% | 40.5% | 19.4% | 41% | – | – | – | – | – |
| O=C(NNS(=O)(=O)c1ccccc1)c1cc(-c2ccnnc2)ccc1F [WM-2474] | 54.2% | 75.6% | 61.3% | 30.5% | 77.4% | – | – | – | – | – |
| Nc1nc(NCc2ccccc2)nc(-c2cccc(CO)c2)n1 [ZINC32547799] | 119% | 139% | 75.9% | 31.3% | 76% | – | – | – | – | – |
